In patent US6348447B1, “Pharmaceutical composition for the treatment of functional dyspepsia and/or irritable bowel syndrome and new use of substances therein” (priority 1998, dated 2002):
“Also recorded” adds a separate entry of the source.

How the values were obtained:
dyspepsia symptoms = conditions: dysmotility-like and gastroesophageal reflux-like dyspepsia; cited from earlier work
[1] = system: small bowel motility in humans with IBS; assay: Small bowel manometry in fasted IBS patients during intravenous GLP-1 infusion; assay type: in vivo, human; conditions: for Contraction frequency / Contraction amplitude / Contraction area / Motility index Ln (Sum (mm Hg*s)/min): 4 h, fasted IBS patients; for Contraction frequency: angle of Treitz; for Contraction frequency / Contraction amplitude / Contraction area / Motility index Ln (Sum (mm Hg*s)/min) / Adjusted MMC: mean ±SEM n=6; for Adjusted MMC: premature MMC at onset subtracted
Method: Experiments were carried out in 12 subjects fulfilling the Rome-criteria for IBS. In the fasted subjects a small bowel manometry tube was passed through the nose and located in antroduodenal region under fluoroscopy. Then, small bowel manometry was recorded for 8 hours in the fasted state, and for an additional 40 min after a meal (320 kcal). During the first 4-hour period of the recording saline was administered intravenously. During the second 4-hour period GLP-1 was given intravenously either at a dose of 1.2 pmol/kg/min (72 pmol/kg/h) (n=6) or 2.5 pmol/kg/min (150 pmol/kg/h) (n=6) with the infusion continued over the 40-minute meal period. GLP-1 was administered as an intravenous infusion at a dose of 1.2 or 2.5 pmol/kg/min. The compound was diluted from a stock solution of GLP-1 (Polypeptide, Wolfenbüttel, Hannover, Germany) 100 nmol/ml prepared according to general guidelines with sterilization filtration and endotoxin test, and divided in 10 ml ampoules.
For each patient the solution for infusion was constituted according to body weight. The dose to be given was multiplied by body weight, resulting in an individual dosing, expressed as pmol/min. The calculated total dose (according to extrapolated 250 ml infusion time) was taken from the stock solution and diluted in 250 ml infusion volume of saline (Natriumklorid 9 mg/ml, Pharmacia & Upjohn, Stockholm, Sweden). The infusion was then given at a rate of 1 ml/min with a constant infusion pump (Volumetric infusion pump, model 960, Imed, Oxon, UK) over 4 hours (240 min).
As this premature MMC cycle was considered to be due to an immediate effect of GLP-1 during a build-up of a steady state concentration in the circulation, an adjusted MMC prevalence during GLP-1 infusion was calculated by subtracting the premature MMC at onset from the remaining MMC observed during infusion of GLP-1.
In detail, the following results were obtained from the motility recordings (reference point: angle of Treitz; values are mean ±SEM of n=6 in each group; statistical evaluation by the non-parametric Wilcoxon signed-rank test): […]

gastric acid secretion = conditions: in man; cited from earlier work
pancreatic secretion = conditions: in vivo; cited from earlier work
gastric emptying = conditions: in man; cited from earlier work
[2] = system: gastric emptying and small intestinal motility; assay: Gastric emptying and small intestinal motility in the rat; assay type: in vivo

Compound | Symptomatic relief, share of studied patients (dyspepsia symptoms) | Time after onset of infusion to start of an MMC in the duodenum ([1]; GLP-1 1.2 pmol/kg/min i.v.) [min] | Contraction frequency ([1]; GLP-1 1.2 pmol/kg/min i.v.) | Contraction amplitude ([1]; GLP-1 1.2 pmol/kg/min i.v.) [mm Hg] | Contraction area ([1]; GLP-1 1.2 pmol/kg/min i.v.) [mm Hg*s] | Motility index Ln (Sum (mm Hg*s)/min) ([1]; GLP-1 1.2 pmol/kg/min i.v.) | Adjusted MMC ([1]; GLP-1 1.2 pmol/kg/min i.v.) | Time after onset of infusion to start of an MMC in the duodenum ([1]; GLP-1 2.5 pmol/kg/min i.v.) [min] | Contraction frequency ([1]; GLP-1 2.5 pmol/kg/min i.v.) | Contraction amplitude ([1]; GLP-1 2.5 pmol/kg/min i.v.) [mm Hg] | Contraction area ([1]; GLP-1 2.5 pmol/kg/min i.v.) [mm Hg*s] | Motility index Ln (Sum (mm Hg*s)/min) ([1]; GLP-1 2.5 pmol/kg/min i.v.) | Adjusted MMC ([1]; GLP-1 2.5 pmol/kg/min i.v.) | Effect on motor activity in the small bowel (overall result in words) ([1]; IBS patients, fasted state) | Patients in whom a premature MMC was started in the duodenum ([1]; in each group (1.2 and 2.5 pmol/kg/min)) | Inhibition of gastric acid secretion (gastric acid secretion) [%] | Inhibition of pancreatic secretion (pancreatic secretion) | Slowing of gastric emptying (gastric emptying) [%] | Action on gastric emptying and small intestinal motility (in words) [2]
COc1cc(N)c(Cl)cc1C(=O)NC1CCN(CCCOc2ccc(F)cc2)CC1OC (stereo not shown) [cisapride] | 60-90% |  |  |  |  |  |  |  |  |  |  |  |  |  |  |  |  |  | 
glucagon-like peptide-1 [GLP-1] |  | ≤ 14.2 ± 3.8 | 1.7 ± 0.4 #/min | 24.7 ± 1.6 | 33.4 ± 3.2 | 4.7 ± 0.3 | 0.0 ± 0.0 #/4 h | ≤ 12.0 ± 2.7 | 0.9 ± 0.2 #/min | 23.6 ± 2.5 | 30.5 ± 5.3 | 3.8 ± 0.8 | 0.2 ± 0.2 #/4 h | able to reduce the motor activity; also recorded: dose-dependent reduction of motor activity | four out of six | 43 | about 45% | 50 | profound inhibitory action
